Where “and” joins values, the source holds several entries; their conditions need not be identical. Equal entries are not always repeated. ± gives the expanded uncertainty stated by the source.
What was measured:
[1] = 101 kPa, Liquid; for speed of sound: Linear variable-path acoustic interferometer; for mass density: Pycnometric method
[2] = xn = mol fraction of the nth substance listed; settings: 101 kPa, Liquid; for speed of sound: Linear variable-path acoustic interferometer; for mass density: Pycnometric method

Nc1ccccc1Cl [2-chlorobenzeneamine]
[1]
Settings | mass density [kg/m3] | speed of sound [m/s]
303.15 K | 1202.7 ± 0.4 | 1470 ± 3
313.15 K | 1193 ± 0.4 | 1438 ± 3
323.15 K | 1183.3 ± 0.4 | 1402 ± 3

Nc1ccccc1Cl [2-chlorobenzeneamine] + C1CCOC1
[2]
Settings | mass density, 303.15 K [kg/m3] | mass density, 313.15 K [kg/m3] | mass density, 323.15 K [kg/m3] | speed of sound, 303.15 K [m/s] | speed of sound, 313.15 K [m/s] | speed of sound, 323.15 K [m/s]
x2 = 0 | 1202.7 ± 0.4 | 1193 ± 0.4 | 1183.3 ± 0.4 | 1470 ± 3 | 1438 ± 3 | 1402 ± 3
x2 = 0.0695 | 1187.6 ± 0.4 | 1177.4 ± 0.4 | 1167.9 ± 0.4 | 1461 ± 3 | 1427 ± 3 | 1395 ± 3
x2 = 0.1543 | 1167.6 ± 0.4 | 1157.7 ± 0.4 | 1148.6 ± 0.4 | 1450 ± 3 | 1415 ± 3 | 1383 ± 3
x2 = 0.2423 | 1146 ± 0.4 | 1136.3 ± 0.4 | 1127 ± 0.4 | 1436 ± 3 | 1401 ± 3 | 1369 ± 3
x2 = 0.3275 | 1124.2 ± 0.4 | 1114.5 ± 0.4 | 1105 ± 0.4 | 1422 ± 3 | 1386 ± 3 | 1353 ± 3
x2 = 0.4213 | 1098.7 ± 0.4 | 1088.7 ± 0.4 | 1079.1 ± 0.4 | 1404 ± 3 | 1367 ± 3 | 1333 ± 3
x2 = 0.5259 | 1067.6 ± 0.4 | 1057.4 ± 0.4 | 1047.5 ± 0.4 | 1383 ± 3 | 1344 ± 3 | 1308 ± 2
x2 = 0.6325 | 1032 ± 0.4 | 1021.8 ± 0.4 | 1012.2 ± 0.4 | 1359 ± 3 | 1319 ± 2 | 1281 ± 2
x2 = 0.744 | 990.1 ± 0.4 | 980.1 ± 0.4 | 971 ± 0.4 | 1331 ± 3 | 1289 ± 2 | 1250 ± 2
x2 = 0.8663 | 938.4 ± 0.3 | 928.5 ± 0.4 | 920 ± 0.4 | 1296 ± 2 | 1252 ± 2 | 1212 ± 2

Nc1cccc(Cl)c1 [3-chlorobenzenamine]
[1]
Settings | mass density | speed of sound
303.15 K | 1205.3 ± 0.4 kg/m3 | 1517 ± 3 m/s
313.15 K | 1196.1 ± 0.4 kg/m3 and 1196 ± 0.4 kg/m3 | 1484 ± 3 m/s and 1486 ± 3 m/s
323.15 K | 1186.6 ± 0.4 kg/m3 | 1452 ± 3 m/s

Nc1cccc(Cl)c1 [3-chlorobenzenamine] + C1CCOC1
[2]
Settings | mass density, 303.15 K [kg/m3] | mass density, 313.15 K [kg/m3] | mass density, 323.15 K [kg/m3] | speed of sound, 303.15 K [m/s] | speed of sound, 313.15 K [m/s] | speed of sound, 323.15 K [m/s]
x2 = 0 | 1205.3 ± 0.4 | 1196 ± 0.4 | 1186.6 ± 0.4 | 1517 ± 3 | 1486 ± 3 | 1452 ± 3
x2 = 0.0728 | 1189.4 ± 0.4 | 1180.6 ± 0.4 | 1171.5 ± 0.4 | 1500 ± 3 | 1468 ± 3 | 1436 ± 3
x2 = 0.1321 | 1175.7 ± 0.4 | 1167.1 ± 0.4 | 1157.9 ± 0.4 | 1487 ± 3 | 1455 ± 3 | 1424 ± 3
x2 = 0.2389 | 1149.7 ± 0.4 | 1140.6 ± 0.4 | 1131.3 ± 0.4 | 1465 ± 3 | 1432 ± 3 | 1400 ± 3
x2 = 0.3272 | 1126.8 ± 0.4 | 1117 ± 0.4 | 1107.4 ± 0.4 | 1446 ± 3 | 1412 ± 3 | 1380 ± 3
x2 = 0.4116 | 1102.9 ± 0.4 | 1093.2 ± 0.4 | 1083.3 ± 0.4 | 1427 ± 3 | 1392 ± 3 | 1360 ± 3
x2 = 0.5161 | 1071.3 ± 0.4 | 1061.4 ± 0.4 | 1051.5 ± 0.4 | 1403 ± 3 | 1366 ± 3 | 1333 ± 3
x2 = 0.6297 | 1033.5 ± 0.4 | 1023.9 ± 0.4 | 1014.3 ± 0.4 | 1373 ± 3 | 1336 ± 3 | 1301 ± 2
x2 = 0.7419 | 992 ± 0.4 | 982.7 ± 0.4 | 973.7 ± 0.4 | 1341 ± 3 | 1302 ± 2 | 1266 ± 2
x2 = 0.8633 | 941.6 ± 0.3 | 932.3 ± 0.4 | 923.4 ± 0.4 | 1302 ± 2 | 1260 ± 2 | 1222 ± 2

Nc1cccc(Cl)c1 [3-chlorobenzenamine] + CC(C)OC(C)C
[2]
Settings | mass density, 303.15 K [kg/m3] | mass density, 313.15 K [kg/m3] | mass density, 323.15 K [kg/m3] | speed of sound, 303.15 K [m/s] | speed of sound, 313.15 K [m/s] | speed of sound, 323.15 K [m/s]
x2 = 0 | 1205.3 ± 0.4 | 1196.1 ± 0.4 | 1186.6 ± 0.4 | 1517 ± 3 | 1484 ± 3 | 1452 ± 3
x2 = 0.0619 | 1171.2 ± 0.4 | 1163.2 ± 0.4 | 1154.7 ± 0.4 | 1484 ± 3 | 1451 ± 3 | 1418 ± 3
x2 = 0.1302 | 1134.1 ± 0.4 | 1126.7 ± 0.4 | 1118.2 ± 0.4 | 1448 ± 3 | 1414 ± 3 | 1380 ± 3
x2 = 0.2031 | 1095.7 ± 0.4 | 1088.2 ± 0.4 | 1079.3 ± 0.4 | 1410 ± 3 | 1374 ± 3 | 1340 ± 3
x2 = 0.2827 | 1055.1 ± 0.4 | 1047.4 ± 0.4 | 1038 ± 0.4 | 1368 ± 3 | 1331 ± 3 | 1295 ± 2
x2 = 0.3716 | 1011.3 ± 0.4 | 1003.4 ± 0.4 | 993.6 ± 0.4 | 1321 ± 3 | 1283 ± 2 | 1246 ± 2
x2 = 0.4676 | 965 ± 0.4 | 957.2 ± 0.4 | 947.6 ± 0.4 | 1270 ± 2 | 1230 ± 2 | 1192 ± 2
x2 = 0.5803 | 911.2 ± 0.4 | 903.7 ± 0.4 | 894.5 ± 0.4 | 1209 ± 2 | 1168 ± 2 | 1129 ± 2
x2 = 0.7235 | 842.6 ± 0.3 | 835.3 ± 0.3 | 826.7 ± 0.4 | 1132 ± 2 | 1089 ± 2 | 1048 ± 2
x2 = 0.8428 | 785.4 ± 0.3 | 777.7 ± 0.3 | 768.7 ± 0.3 | 1066 ± 2 | 1023 ± 2 | 981 ± 2

CC(C)OC(C)C [diisopropyl ether]
[1]
Settings | mass density [kg/m3] | speed of sound [m/s]
303.15 K | 712.9 ± 0.3 | 976 ± 2
313.15 K | 702.9 ± 0.3 | 932 ± 2
323.15 K | 691.9 ± 0.3 | 889 ± 2

CC(C)OC(C)C [diisopropyl ether] + Nc1cccc(Cl)c1
[2], x1 = 1
Settings | mass density [kg/m3] | speed of sound [m/s]
303.15 K | 712.9 ± 0.3 | 976 ± 2
313.15 K | 702.9 ± 0.3 | 932 ± 2
323.15 K | 691.9 ± 0.3 | 889 ± 2

C1CCOC1 [tetrahydrofuran]
[1]
Settings | mass density [kg/m3] | speed of sound [m/s]
303.15 K | 876.9 ± 0.3 | 1254 ± 2
313.15 K | 865.7 ± 0.3 | 1207 ± 2
323.15 K | 854.8 ± 0.3 | 1165 ± 2

C1CCOC1 [tetrahydrofuran] + Nc1cccc(Cl)c1
[2], x1 = 1
Settings | mass density [kg/m3] | speed of sound [m/s]
303.15 K | 876.9 ± 0.3 | 1254 ± 2
313.15 K | 865.7 ± 0.3 | 1207 ± 2
323.15 K | 854.8 ± 0.3 | 1165 ± 2

C1CCOC1 [tetrahydrofuran] + Nc1ccccc1Cl
[2], x1 = 1
Settings | mass density [kg/m3] | speed of sound [m/s]
303.15 K | 876.9 ± 0.3 | 1254 ± 2
313.15 K | 865.7 ± 0.3 | 1207 ± 2
323.15 K | 854.8 ± 0.3 | 1165 ± 2

— the NIST ThermoML archive (doi:10.1016/j.tca.2011.07.005)
